In patent US11793782B2, “Therapeutic agents for neurodegenerative diseases” (priority 2017, dated 2023):

System: ataxia telangiectasia patients
Assay: Case studies, ataxia telangiectasia patients (SARA, SCAFI, video-oculography)
Format: in vivo, human
Conditions: for 8MWT: baseline 8.95 sec; for PATA: baseline 14.5; for 9HPTND: baseline 71.2 sec; for 9HPTD: baseline 85.38 sec
Description: For example, to evaluate overall neurological status, mDRS, a four-domain scale (ambulation, manipulation, language and swallowing), may be applied. Cerebellar function may be evaluated using SARA, an eight-item clinical rating scale (gait, stance, sitting, speech, fine motor function and taxis; range 0-40, where 0 is the best neurological status and 40 the worst), and SCAFI, comprising the 8-m-Walking-Time (8 MW; performed by having patients walking twice as quickly as possible from one line to another excluding turning), 9-Hole-Peg-Test (9HPT) and the number of “PATA” repetitions over 10 s. Subjective impairment and quality of life may be evaluated using the EQ-5D-5L questionnaire and VAS. To assess ocular motor function, 3-dimensional videooculography (EyeSeeCam) may be used to measure the peak velocity of saccades, gain of smooth pursuit, peak slow phase velocity of gaze-evoked nystagmus (gaze-holding function), peak slow phase velocity of optokinetic nystagmus, and gain of horizontal vestibulo-ocular reflex. To evaluate the cognitive state, WAIS-R or WISC-IV, and MoCA, assessing different cognitive domains, including attention and concentration, executive functions, memory, language, visuoconstructional skills, conceptual thinking, calculations, and orientation with a maximum of 30 points and a cut-off score of 26, may be used. The skilled person will know how to perform these and other such tests.
After one month of treatment, the patient was re-evaluated. […] Examination indicated a Scale for Assessment and Rating of Ataxia (SARA) score of 15.5/40. Results from the patient's Spinocerebellar Ataxia Functional Index (SCAFI) analysis were: • Mean 8-meters Walking Test (8 MW): 18.5 s • MW 9-Hole Pegboard Test Dominant (9HPTD) (right): 77.9 s • MW 9-Hole Pegboard Test Non-Dominant (9HPTND): 101.3 s • MW PATA Word Test: 13 • Visual analog scale (as evaluated by the patient): 85
After one month of treatment, the patient was re-evaluated. […] Examination indicated a Scale for Assessment and Rating of Ataxia (SARA) score of 23.5/40.
After slightly over 7 months of treatment, the patient was re-evaluated. […] Examination indicated a Scale for Assessment and Rating of Ataxia (SARA) score of 21.5/40.
After slightly over 1 month of treatment, the patient was re-evaluated. […] The patient also reported that drinking was easier and no longer needed a straw. […] Examination indicated a Scale for Assessment and Rating of Ataxia (SARA) score of 18.5/40.
After about 1 month of treatment, the patient was re-evaluated. […] On medication, they were able to walk with only holding the caregiver's hand.
The patient was evaluated after one month and six months of treatment, respectively. […] The patient, however, was suffering from anxiety, which would be expected to negatively influence the response.

[1] = ataxia telangiectasia Patient 1, after one month
[2] = ataxia telangiectasia Patient 1, after one month, Center
[3] = ataxia telangiectasia Patient 1, after one month, Down
[4] = ataxia telangiectasia Patient 1, after one month, Left
[5] = ataxia telangiectasia Patient 1, after one month, Right
[6] = ataxia telangiectasia Patient 1, after one month, Up
[7] = ataxia telangiectasia Patient 2, after one month
[8] = ataxia telangiectasia Patient 2, after one month, Center
[9] = ataxia telangiectasia Patient 2, after one month, Down
[10] = ataxia telangiectasia Patient 2, after one month, Left
[11] = ataxia telangiectasia Patient 2, after one month, Right
[12] = ataxia telangiectasia Patient 2, after one month, Up
[13] = ataxia telangiectasia Patient 3, after slightly over 7 months
[14] = ataxia telangiectasia Patient 3, after slightly over 7 months, Center
[15] = ataxia telangiectasia Patient 3, after slightly over 7 months, Down
[16] = ataxia telangiectasia Patient 3, after slightly over 7 months, Left
[17] = ataxia telangiectasia Patient 3, after slightly over 7 months, Right
[18] = ataxia telangiectasia Patient 4, after slightly over 1 month
[19] = ataxia telangiectasia Patient 4, after slightly over 1 month, Center
[20] = ataxia telangiectasia Patient 4, after slightly over 1 month, Down
[21] = ataxia telangiectasia Patient 4, after slightly over 1 month, Left
[22] = ataxia telangiectasia Patient 4, after slightly over 1 month, Right
[23] = ataxia telangiectasia Patient 5, after about 1 month
[24] = ataxia telangiectasia Patient 5, after about 1 month, Center
[25] = ataxia telangiectasia Patient 5, after about 1 month, Down
[26] = ataxia telangiectasia Patient 5, after about 1 month, Left
[27] = ataxia telangiectasia Patient 5, after about 1 month, Right
[28] = ataxia telangiectasia Patient 5, after about 1 month, Up
[29] = ataxia telangiectasia Patient 5, after almost 7 months
[30] = ataxia telangiectasia Patient 5, after slightly over a year
[31] = ataxia telangiectasia Patient 6, after one month
[32] = ataxia telangiectasia Patient 6, after six months

## CC(=O)NC(CC(C)C)C(=O)O (racemic) [acetyl-DL-leucine]
[1]
  Caregivers' report: improvement of speech and gait
  Video-oculography (summary): significant improvement of fixation stability and decrease of intensity of downbeat-nystagmus
[2]
  Slow phase velocity of the gaze-holding nystagmus, Horizontal: 0.4
  Slow phase velocity of the gaze-holding nystagmus, Vertical: 4.77
[3]
  Slow phase velocity of the gaze-holding nystagmus, Horizontal: −0.44
  Slow phase velocity of the gaze-holding nystagmus, Vertical: 5.29
[4]
  Slow phase velocity of the gaze-holding nystagmus, Horizontal: 8.2
  Slow phase velocity of the gaze-holding nystagmus, Vertical: 8.85
[5]
  Slow phase velocity of the gaze-holding nystagmus, Horizontal: −0.95
  Slow phase velocity of the gaze-holding nystagmus, Vertical: 4.83
[6]
  Slow phase velocity of the gaze-holding nystagmus, Horizontal: 0.72
  Slow phase velocity of the gaze-holding nystagmus, Vertical: 2.67
Ataxia telangiectasia Patient 1, after one month, before 12.5
  PATA Word Test: 13
Ataxia telangiectasia Patient 1, after one month, before 21.8 s
  Mean 8-meters Walking Test (8 MW): 18.5 s
Ataxia telangiectasia Patient 1, after one month, before 90.2 s
  9-Hole Pegboard Test Dominant (9HPTD) (right): 77.9 s
Ataxia telangiectasia Patient 1, after one month, before 99
  Visual analog scale (as evaluated by the patient): 85
Ataxia telangiectasia Patient 1, after one month, before 125.8 s
  9-Hole Pegboard Test Non-Dominant (9HPTND): 101.3 s
[7]
  Caregivers' report: improvement of fine motor function, hand tremor, and speech
  Mean 8-meters Walking Test (8 MW): not able to perform without support
  Video-oculography (summary): improvement of fixation stability and significant improvement of downbeat-nystagmus intensity
[8]
  Slow phase velocity of the gaze-holding nystagmus, Horizontal: −1.45
  Slow phase velocity of the gaze-holding nystagmus, Vertical: 5.6
[9]
  Slow phase velocity of the gaze-holding nystagmus, Horizontal: −2.5
  Slow phase velocity of the gaze-holding nystagmus, Vertical: 4.69
[10]
  Slow phase velocity of the gaze-holding nystagmus, Horizontal: 3.58
  Slow phase velocity of the gaze-holding nystagmus, Vertical: 7
[11]
  Slow phase velocity of the gaze-holding nystagmus, Horizontal: −3.45
  Slow phase velocity of the gaze-holding nystagmus, Vertical: 6.56
[12]
  Slow phase velocity of the gaze-holding nystagmus, Horizontal: −0.51
  Slow phase velocity of the gaze-holding nystagmus, Vertical: 3.15
Ataxia telangiectasia Patient 2, after one month, before 13.5
  PATA Word Test: 14
Ataxia telangiectasia Patient 2, after one month, before 45
  Visual analog scale (as evaluated by the patient): 80
Ataxia telangiectasia Patient 2, after one month, before 299.2 s
  9-Hole Pegboard Test Non-Dominant (9HPTND): 300 s
Ataxia telangiectasia Patient 2, after one month, before 300 s
  9-Hole Pegboard Test Dominant (9HPTD) (right): 300 s
[13]
  Caregivers' and patient's report: general improvement of well-being
  Mean 8-meters Walking Test (8 MW): not able to perform
  Video-oculography (summary): significant improvement of fixation stability and decrease of intensity of gaze-holding nystagmus at all positions
[14]
  Slow phase velocity of the gaze-holding nystagmus, Horizontal: −0.1 °/s
  Slow phase velocity of the gaze-holding nystagmus, Vertical: 0.4 °/s
[15]
  Slow phase velocity of the gaze-holding nystagmus, Horizontal: −0.6 °/s
  Slow phase velocity of the gaze-holding nystagmus, Vertical: 1.2 °/s
[16]
  Slow phase velocity of the gaze-holding nystagmus, Horizontal: 1.7 °/s
  Slow phase velocity of the gaze-holding nystagmus, Vertical: 0.1 °/s
[17]
  Slow phase velocity of the gaze-holding nystagmus, Horizontal: −4.2 °/s
  Slow phase velocity of the gaze-holding nystagmus, Vertical: 1.7 °/s
Ataxia telangiectasia Patient 3, after slightly over 7 months, before 14
  PATA Word Test: 10
Ataxia telangiectasia Patient 3, after slightly over 7 months, before 80
  Visual analog scale (as evaluated by the patient): 80
Ataxia telangiectasia Patient 3, after slightly over 7 months, before 150 s
  9-Hole Pegboard Test Dominant (9HPTD) (right): 124.5 s
Ataxia telangiectasia Patient 3, after slightly over 7 months, before 161.6 s
  9-Hole Pegboard Test Non-Dominant (9HPTND): 147.5 s
[18]
  Mean 8-meters Walking Test (8 MW): not able to perform
  Patient's and parent's report: improvement in handwriting
  Video-oculography (summary): general improvement of fixation stability and decrease of intensity of spontaneous and gaze-holding nystagmus at all positions
[19]
  Slow phase velocity of the gaze-holding nystagmus, Horizontal: −0.2 °/s
  Slow phase velocity of the gaze-holding nystagmus, Vertical: 4.8 °/s
[20]
  Slow phase velocity of the gaze-holding nystagmus, Horizontal: −0.7 °/s
  Slow phase velocity of the gaze-holding nystagmus, Vertical: −2.3 °/s
[21]
  Slow phase velocity of the gaze-holding nystagmus, Horizontal: −0.8 °/s
  Slow phase velocity of the gaze-holding nystagmus, Vertical: 1.9 °/s
[22]
  Slow phase velocity of the gaze-holding nystagmus, Horizontal: −1 °/s
  Slow phase velocity of the gaze-holding nystagmus, Vertical: 0.3 °/s
Ataxia telangiectasia Patient 4, after slightly over 1 month, before 14
  PATA Word Test: 15.5
Ataxia telangiectasia Patient 4, after slightly over 1 month, before 52.3 s
  9-Hole Pegboard Test Non-Dominant (9HPTND): 101.7 s
Ataxia telangiectasia Patient 4, after slightly over 1 month, before 70
  Visual analog scale (as evaluated by the patient): 70
Ataxia telangiectasia Patient 4, after slightly over 1 month, before 124.5 s
  9-Hole Pegboard Test Dominant (9HPTD) (right): 93.5 s
Ataxia telangiectasia Patient 5, 5 g/day, after about 1 month
  Mother's report: significant improvement of stability of the gait
[23]
  Mean 8-meters Walking Test (8 MW): not able to walk without support
  Weight gained: 1.5 kg
[24]
  Slow-phase velocity (SPV) of fixation and gaze-holding nystagmus, Horizontal: 0.79 °/s
  Slow-phase velocity (SPV) of fixation and gaze-holding nystagmus, Vertical: 3.54 °/s
[25]
  Slow-phase velocity (SPV) of fixation and gaze-holding nystagmus, Horizontal: 0.62 °/s
  Slow-phase velocity (SPV) of fixation and gaze-holding nystagmus, Vertical: 1.08 °/s
[26]
  Slow-phase velocity (SPV) of fixation and gaze-holding nystagmus, Horizontal: 1.22 °/s
  Slow-phase velocity (SPV) of fixation and gaze-holding nystagmus, Vertical: 2.53 °/s
[27]
  Slow-phase velocity (SPV) of fixation and gaze-holding nystagmus, Horizontal: 1.17 °/s
  Slow-phase velocity (SPV) of fixation and gaze-holding nystagmus, Vertical: 2.36 °/s
[28]
  Slow-phase velocity (SPV) of fixation and gaze-holding nystagmus, Horizontal: 0.33 °/s
  Slow-phase velocity (SPV) of fixation and gaze-holding nystagmus, Vertical: 1.71 °/s
Ataxia telangiectasia Patient 5, after about 1 month, before 6
  PATA Word Test: 7.5
Ataxia telangiectasia Patient 5, after about 1 month, before 90
  Visual analog scale (as evaluated by the patient): 80
Ataxia telangiectasia Patient 5, after about 1 month, before 102.7 s
  9-Hole Pegboard Test Dominant (9HPTD) (right): 103.6 s
Ataxia telangiectasia Patient 5, after about 1 month, before 116.8 s
  9-Hole Pegboard Test Non-Dominant (9HPTND): 88.8 s
[29]
  9-Hole Pegboard Test Dominant (9HPTD) (right): 92.4 s
  9-Hole Pegboard Test Non-Dominant (9HPTND): 98.3 s
  Further weight gained: 3 kg
  Mother's report: significantly more stable gait
  PATA Word Test: 11
  Visual analog scale (as evaluated by the patient): 100
Ataxia telangiectasia Patient 5, after almost 7 months, holding of the hand
  Mean 8-meters Walking Test (8 MW): 15.3 s
[30]
  9-Hole Pegboard Test Dominant (9HPTD) (right): 95.6 s
  9-Hole Pegboard Test Non-Dominant (9HPTND): 127.6 s
  Clinical observation: improved social interaction, activity, and agility
  PATA Word Test: 14.5
  Visual analog scale (as evaluated by the patient): 95
Ataxia telangiectasia Patient 5, after slightly over a year, able to walk by themself, parent held hand
  Mean 8-meters Walking Test (8 MW): 13.9 s
Ataxia telangiectasia Patient 5, after slightly over a year, suspected infantile migraine
  Adverse observation: repeatedly occuring frontal localized pain with vomiting in the morning
[31]
  Clinical observation: increased fine motor skills with reduced hand tremor, improved postural stability and gait, increased enunciation, and increased self-confidence
  8MWT: 8.45 s
  PATA: 15.5
  9HPTND: 70.39 s
  9HPTD: 81.95 s
[32]
  Clinical observation: stable general conditions, stable gait and stance, and improved handwriting
  8MWT: 7.53 s
  PATA: 13
  9HPTND: 80.32 s
  9HPTD: 136.27 s
Ataxia telangiectasia Patient 6, after six months, baseline 11/40
  SARA: 11/40
